Test results published in patent US6613784B1, “Nitroxyderivatives having antinflammatory, analgesic and antithrombotic activity” (Nicox S.A., priority 1999, dated 2003).
Read-outs that look alike come from different tables or passages of the source.

Key:
[1] = system: rabbit corpus cavernosum smooth muscle; test: Inhibition of smooth muscle contraction, rabbit corpus cavernosum in organ bath; design: species or system New Zealand White Rabbits; conditions: Oryctolagus cuniculus, pre-contracted with phenylephrine (10 μM)
Procedure: (§1) New Zealand White Rabbits (2.0-2.5 kg) were killed by cervical dislocation, cavernosal tissue (corpus canvernosus) and aorta excised.
(§2) The tissue was mounted in organ baths for recording of isometric tension, according to the method described by Khan MA et al (BJU Int. 1999 84(6):720-4). Tissues were pre-contracted with phenylephrine (10 μM) and relaxation responses to carbachol assessed in the presence of the compound to be tested.
(§3) The compound of the invention used in the assay was 2-acetyloxybenzoic acid 6-(nitroxymethyl)-2-pyridinylmethyl ester hydrochloride (NCX 4050), which synthesis is described in preceding example 1.
(§4) The reference compound was 2-acetoxybenzoic acid (3-nitroxymethyl)phenyl ester of formula [drawing 34]

[2] = system: rabbit aorta smooth muscle; test: Inhibition of smooth muscle contraction, rabbit aorta in organ bath; design: species or system New Zealand White Rabbits; conditions: Oryctolagus cuniculus, pre-contracted with phenylephrine (10 μM)
Procedure: as §1, §2, §3, §4

[3] = system: human vascular smooth cell proliferation; test: Inhibition of smooth muscle cell proliferation (3H-thymidine); format: cell-based; conditions: 10% FCS
Procedure: Human saphenous veins were cultured by standard explant methods (J. Cardiovasc., Pharmacol. 1999, 33(2), 204-11). Tissues were collected into sterile pots containing PBS, penicillin and streptomycin. Under sterile tissue culture conditions, tissues were cut into small pieces (approximately 1 mg weight) and placed into a standard culture medium containing 20% fetal calf serum (FCS) for several days (medium changed every 2-4 days). ^3H-thymidine was measured in the DNA fraction of cells cultured into 48 well plates. Cells were cultured to confluence in the medium containing 10% FCS. Cells were deprived of serum for 24 h before the addition of 10% FCS, together with different concentration of steroids. After 24 h, ^3H-thymidine was added to the cells for 4 h. Cells were washed with phosphate buffered saline and ethanol. DNA was extracted with sodium hydroxide solution and the ^3H material counted by scintillation. The data represents observations made in triplicate wells.
Table 2 reports results obtained on the inhibitory effect of the tested compounds on human vascular smooth cell proliferation.

[4] = concentration (log M) −4, human saphenous vein cells
[5] = concentration (log M) −5, human saphenous vein cells

## CC(=O)Oc1ccccc1C(=O)Oc1cccc(CO[N+](=O)[O-])c1 [NCX 4016, 2-acetoxybenzoic acid (3-nitroxymethyl)phenyl ester]
[1]; concentration (log M) −5, read-out: % inhibition rabbit corpus cav
  inhibition at 10 µM: 14%
[2]; concentration (log M) −4
  inhibition at 100 µM: 20%
[2]; concentration (log M) −5, read-out: % inhibition rabbit aorta
  inhibition at 10 µM: 18%
[3]; [4]
  % inhibition cell proliferation: 60%
[3]; [5]
  % inhibition cell proliferation: 43%

## CC(=O)Oc1ccccc1C(=O)OCc1cccc(CO[N+](=O)[O-])n1.Cl [NCX 4050, 2-Acetyloxybenzoic Acid 6-(Nitroxymethyl)-2-pyridinylmethyl Ester Chlorhydrate]
[1]; read-out: % inhibition rabbit corpus cav, concentration (log M) −4
  inhibition at 10 µM: 85%
[1]; read-out: % inhibition rabbit corpus cav, concentration (log M) −5
  inhibition at 10 µM: 63%
[2]; read-out: % inhibition rabbit aorta, concentration (log M) −5
  inhibition at 10 µM: 80%
[3]; [4]
  % inhibition cell proliferation: 95%
[3]; [5]
  % inhibition cell proliferation: 82%
